Experimental data reported in US20250024870A1, “NATURAL SUGAR-FREE SYRUP, AND PRODUCTION METHOD THEREOF” (CJ CHEILJEDANG CORPORATION, priority 2021, published 2025).

Tests used:
Type in all cases: cell-based
[1] = test system: General bacteria, bacteria derived from flavor syrup; assay: Microbial challenge test (MCT) in sucrose-zero vanilla syrup, general bacteria; conditions: for general bacteria count: single concentration as printed in the row; for general bacteria count, Max.: Max. concentration of agent; for general bacteria count, Min.: Min. concentration of agent
Method: (§1) Subsequently, the microbial challenge test (MCT) was conducted in the following order. The experiment was applied to the vanilla syrup, which is the representative among the sucrose syrup, the vanilla syrup, and the red grapefruit syrup, and the applied strains and analysis conditions are shown in Table 14.
(§2) The microbial challenge test (MCT) experiment conditions are as follows: 1) prepare a sucrose-zero vanilla syrup; 2) prepare general bacteria/fungi/spores that have completed proliferation; 3) inject 10^3 cfu/ml of bacteria into a sterilized glass container (100 ml); 4) fill 3) with sucrose-zero vanilla syrup at the filling temperature (80° C. or higher); 5) let it stand after cooling; 6) one day after the cooling of the stationary sample was completed, culture was performed on a weekly basis; and 7) verify the trend of bacterial proliferation or decline for each natural antibacterial agent for 4 weeks.

[2] = test system: General bacteria (T.A.B), bacteria derived from flavor syrup; assay: Minimum inhibitory concentration (MIC), paper disc diffusion method, general bacteria; conditions: legend not given
Method: (§3) [table] The minimum inhibitory concentration (MIC) was conducted to confirm the antibacterial activity of each antibacterial agent and the minimum concentration showing antibacterial activity against the target strain, and the paper disc diffusion method was used as the experimental method. […] It was confirmed that if the bacteria had antibacterial activity, the proliferation of bacteria was inhibited as a clear zone was created around the paper.

Fungi (Asp. niger) [3] = assay: Microbial challenge test (MCT) in sucrose-zero vanilla syrup, fungi; conditions: for fungi count: single concentration as printed in the row; for fungi count, Max.: Max. concentration of agent; for fungi count, Min.: Min. concentration of agent
Method: as §1, §2

Spores (B. subtilis) [4] = assay: Microbial challenge test (MCT) in sucrose-zero vanilla syrup, spores; conditions: for spores count: single concentration as printed in the row; for spores count, Max.: Max. concentration of agent; for spores count, Min.: Min. concentration of agent
Method: as §1, §2

Spores (B. subtilis) [5] = assay: Minimum inhibitory concentration (MIC), paper disc diffusion method, spores; conditions: legend not given
Method: as §3

Fungi (Asp. niger) [6] = assay: Minimum inhibitory concentration (MIC), paper disc diffusion method, fungi; conditions: legend not given
Method: as §3

[7] = immediately after inoculation of target bacteria

Molecule: C/C=C/C=C/C(=O)[O-].[K+] [Potassium sorbate, reference compound]
- general bacteria count ([1]; after 1 week): 93
- general bacteria count ([1]; after 2 weeks): 83
- general bacteria count ([1]; after 3 weeks): 80
- general bacteria count ([1]; after 4 weeks): 78
- general bacteria count [1, 7]: 98
- Antibacterial activity (clear zone), general bacteria (T.A.B) ([2]; 300 ppm): ∘
- Antibacterial activity (clear zone), general bacteria (T.A.B) ([2]; 400 ppm): ∘
- Antibacterial activity (clear zone), general bacteria (T.A.B) ([2]; 500 ppm): ∘
- Antibacterial activity (clear zone), general bacteria (T.A.B) ([2]; 1,000 ppm): ∘
- fungi count (Fungi (Asp. niger) [3]; after 1 week): 63
- fungi count (Fungi (Asp. niger) [3]; after 2 weeks): 66
- fungi count (Fungi (Asp. niger) [3]; after 3 weeks): 60
- fungi count (Fungi (Asp. niger) [3]; after 4 weeks): 58
- fungi count (Fungi (Asp. niger) [3]; [7]): 68
- spores count (Spores (B. subtilis) [4]; after 1 week): 873
- spores count (Spores (B. subtilis) [4]; after 2 weeks): 876
- spores count (Spores (B. subtilis) [4]; after 3 weeks): 850
- spores count (Spores (B. subtilis) [4]; after 4 weeks): 860
- spores count (Spores (B. subtilis) [4]; [7]): 880
- Antibacterial activity (clear zone), spores (Spores (B. subtilis) [5]; 300 ppm): ∘
- Antibacterial activity (clear zone), spores (Spores (B. subtilis) [5]; 400 ppm): ∘
- Antibacterial activity (clear zone), spores (Spores (B. subtilis) [5]; 500 ppm): ∘
- Antibacterial activity (clear zone), spores (Spores (B. subtilis) [5]; 1,000 ppm): ∘
- Antibacterial activity (clear zone), fungi (Fungi (Asp. niger) [6]; 300 ppm): ∘
- Antibacterial activity (clear zone), fungi (Fungi (Asp. niger) [6]; 400 ppm): ∘
- Antibacterial activity (clear zone), fungi (Fungi (Asp. niger) [6]; 500 ppm): ∘
- Antibacterial activity (clear zone), fungi (Fungi (Asp. niger) [6]; 1,000 ppm): ∘

Molecule: E-polylisine [E-polylysine]
- general bacteria count, Max. ([1]; after 1 week): 126
- general bacteria count, Min. ([1]; after 1 week): 129
- general bacteria count, Max. ([1]; after 2 weeks): 115
- general bacteria count, Min. ([1]; after 2 weeks): 120
- general bacteria count, Max. ([1]; after 3 weeks): 110
- general bacteria count, Min. ([1]; after 3 weeks): 120
- general bacteria count, Max. ([1]; after 4 weeks): 108
- general bacteria count, Min. ([1]; after 4 weeks): 110
- general bacteria count, Max. [1, 7]: 129
- general bacteria count, Min. [1, 7]: 132
- Antibacterial activity (clear zone), general bacteria (T.A.B) ([2]; 200 ppm): ∘
- Antibacterial activity (clear zone), general bacteria (T.A.B) ([2]; 300 ppm): ∘
- Antibacterial activity (clear zone), general bacteria (T.A.B) ([2]; 400 ppm): ∘
- Antibacterial activity (clear zone), general bacteria (T.A.B) ([2]; 500 ppm): ∘
- Antibacterial activity (clear zone), general bacteria (T.A.B) ([2]; 1,000 ppm): ∘
- fungi count, Max. (Fungi (Asp. niger) [3]; after 1 week): 135
- fungi count, Min. (Fungi (Asp. niger) [3]; after 1 week): 147
- fungi count, Max. (Fungi (Asp. niger) [3]; after 2 weeks): 130
- fungi count, Min. (Fungi (Asp. niger) [3]; after 2 weeks): 137
- fungi count, Max. (Fungi (Asp. niger) [3]; after 3 weeks): 128
- fungi count, Min. (Fungi (Asp. niger) [3]; after 3 weeks): 130
- fungi count, Max. (Fungi (Asp. niger) [3]; after 4 weeks): 125
- fungi count, Min. (Fungi (Asp. niger) [3]; after 4 weeks): 128
- fungi count, Max. (Fungi (Asp. niger) [3]; [7]): 138
- fungi count, Min. (Fungi (Asp. niger) [3]; [7]): 150
- spores count, Max. (Spores (B. subtilis) [4]; after 1 week): 720
- spores count, Min. (Spores (B. subtilis) [4]; after 1 week): 870
- spores count, Max. (Spores (B. subtilis) [4]; after 2 weeks): 773
- spores count, Min. (Spores (B. subtilis) [4]; after 2 weeks): 850
- spores count, Max. (Spores (B. subtilis) [4]; after 3 weeks): 780
- spores count, Min. (Spores (B. subtilis) [4]; after 3 weeks): 800
- spores count, Max. (Spores (B. subtilis) [4]; after 4 weeks): 720
- spores count, Min. (Spores (B. subtilis) [4]; after 4 weeks): 830
- spores count, Max. (Spores (B. subtilis) [4]; [7]): 720
- spores count, Min. (Spores (B. subtilis) [4]; [7]): 880
- Antibacterial activity (clear zone), spores (Spores (B. subtilis) [5]; 400 ppm): ∘
- Antibacterial activity (clear zone), spores (Spores (B. subtilis) [5]; 500 ppm): ∘
- Antibacterial activity (clear zone), spores (Spores (B. subtilis) [5]; 1,000 ppm): ∘
- Antibacterial activity (clear zone), fungi (Fungi (Asp. niger) [6]; 400 ppm): ∘
- Antibacterial activity (clear zone), fungi (Fungi (Asp. niger) [6]; 500 ppm): ∘
- Antibacterial activity (clear zone), fungi (Fungi (Asp. niger) [6]; 1,000 ppm): ∘
